The subject of one assay is male Long Evans rats. The assay is described as follows: Attentional set-shifting task (sub-chronic PCP rats). As to conditions: single oral administration after CD. Type of assay: in vivo, rat. The procedure: Attentional Set-Shifting Task
The compound of the present invention was evaluated by an attentional set-shifting task test.
The attentional set-shifting task test, as in WCST, is a test for measuring flexibility with respect to the change of a rule (clue). The effect on executive function disorder which is one of higher brain dysfunctions can be evaluated by this test.
After allowing the mouse to learn a task that food reward is obtained if there is a clue, in the case where the clue is shifted within a dimension (for example, the clue is changed from a form to another form), both normal animal and pathological animal having abnormality in the prefrontal cortex of the brain (hereinafter, referred to as “pathological animal”) can discriminate clues to obtain food reward. However, after allowing the mouse to learn a task of obtaining food reward by a clue, in the case where the clue is shifted to the outside of a dimension (for example, the clue is changed from a form to aroma), the normal animal can discriminate a clue of food, but the pathological animal cannot discriminate the clue of food. This test puts this behavior to practical use.
The following experiments were carried out with reference to European Journal of Neuroscience, 2005, vol. 21, p. 1070-1076, which was partially modified. […]

In assay [1] the target is T1, human dopamine D1 receptor (Homo sapiens, UniProt P21728).
T1 construct: expressed in transfected cells
T1 sequence (P21728 whole entry): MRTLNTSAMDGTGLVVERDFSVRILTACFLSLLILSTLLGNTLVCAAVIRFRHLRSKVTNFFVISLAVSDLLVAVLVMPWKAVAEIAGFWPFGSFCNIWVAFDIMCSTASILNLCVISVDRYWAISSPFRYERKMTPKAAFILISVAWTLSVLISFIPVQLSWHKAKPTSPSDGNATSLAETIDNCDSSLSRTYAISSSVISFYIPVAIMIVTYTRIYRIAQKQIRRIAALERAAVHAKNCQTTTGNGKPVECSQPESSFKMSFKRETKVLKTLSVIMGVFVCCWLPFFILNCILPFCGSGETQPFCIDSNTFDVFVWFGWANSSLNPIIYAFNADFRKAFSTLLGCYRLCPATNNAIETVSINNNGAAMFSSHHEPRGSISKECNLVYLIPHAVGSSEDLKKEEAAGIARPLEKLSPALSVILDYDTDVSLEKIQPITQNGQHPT
Description: Evaluation of positive allosteric modulating action (PAM action): left shift of dopamine dose-response curve (cAMP, TR-FRET). Type of assay: cell-based. As to conditions: human dopamine D1 receptor stably-expressing CHO cells. The method, then: Buffer solution for assay=αMEM containing 1 mM IBMX
Buffer solution for dilution=αMEM containing 1 mM IBMX and 0.8 mM ascorbic acid
Evaluation of Positive allosteric modulating action (PAM action)
The PAM action of the compound of the present invention was evaluated by the ratio of a left shift of a dopamine dose response curve.
The left shift means that the dopamine dose response curve, in which the logarithm of dose is set to abscissa (X axis) and the response (in this test, cAMP concentration) is set to ordinate (Y axis), is parallely shifted in the negative direction of the X axis by the addition of PAM.
The coding sequence of a human dopamine D1 receptor (Accession No.: NM_000794.3) was amplified by PCR, and was subcloned into a pEF-BOS vector. […]
To measure cAMP, LANCE Ultra cAMP kit (PerkinElmer Inc., LANCE is a registered trademark) was used. […] The plate was incubated at room temperature for 1 hour, and then the fluorescence intensity at 665 nm and 620 nm was measured (excitation wavelength: 320 nm, fluorescence wavelength: 665 nm, 620 nm) by TR-FRET method using a plate reader (2103 Multilabel Plate Reader (registered trademark Envision), PerkinElmer, Inc.). The fluorescence intensity ratio [(fluorescence intensity at 665 nm)/(fluorescence intensity at 620 nm)×10^4] of each well was calculated, and was used for analysis. […]
Background: Time-resolved FRET reads energy transfer from a long-lived donor to a nearby acceptor.

A further assay relates to ddY male mouse. Description: Y-maze test (spontaneous alternation behavior, MK-801-induced cognitive impairment). In kind it is in vivo. As to conditions: single oral administration 1 hour before test, MK-801 0.15 mg/kg i.p. The procedure: The improvement effect on cognitive impairment of the compound of the present invention was evaluated using Y-maze test that is an experimental system of spontaneous alternation behavior.
As the Y-maze, a maze in which three runways, each having a length of 40 cm, a height of 13 cm, a floor width of 3 cm, and an upper portion width of 10 cm, are attached to each other in a Y shape at an angle of 120°, was used. […]
After the aforementioned mouse was placed at the end of any runway in the Y-maze, the mouse was freely searched for eight minutes. The number of times the mouse has entered the runway was counted, and this counted number of times was set to the total entry number. The number of times the mouse has continuously entered three different runways (for example, when three arms were represented by a, b, and c, respectively, in the case where the order of entry of runways is abccbacab, it was counted by 4) was set to spontaneous alternation behavior number. Spontaneous alternation behavior rate is calculated by Calculation Equation: Spontaneous alternation behavior rate=[spontaneous alternation behavior number/(total entry number−2)]×100. The calculated spontaneous alternation behavior rate was set to an index of spontaneous alternation behavior.
The measured value was represented by average value f standard error for each group. […]

This is an account of results in US10426784B2, “Imidazodiazepine compound” (Astellas Pharma Inc., priority 2015, dated 2019).

As for `O=C(Cn1c(=O)oc2cccc(F)c21)N1CCCn2cc(-c3ccc(C(F)(F)F)cc3)nc2C1` [Ex1, 4-fluoro-3-(2-oxo-2-{2-[4-(trifluoromethyl)phenyl]-6,7-dihydro-5H-imidazo[1,2-a][1,4]diazepin-8(9H)-yl}ethyl)-1,3-benzoxazol-2(3H)-one], the “Dat3: minimum effective dose (improving the executive function disorder, ED task)” value with male Long Evans rats was found to be 3 µg/kg. The “EC50 2-fold potentiation (test drug concentration by which the EC50 of dopamine is potentiated in 2-fold)” value in assay [1] was 0.061 µM. Also, the “Dat2: minimum effective dose (significantly improving spontaneous alternation behavior)” value in the assay on ddY male mouse was 0.03 mg/kg.
